The target in experiment [1] is T1, Interleukin-23 receptor (Homo sapiens, UniProt Q5VWK5).
T1 sequence (Q5VWK5 whole entry): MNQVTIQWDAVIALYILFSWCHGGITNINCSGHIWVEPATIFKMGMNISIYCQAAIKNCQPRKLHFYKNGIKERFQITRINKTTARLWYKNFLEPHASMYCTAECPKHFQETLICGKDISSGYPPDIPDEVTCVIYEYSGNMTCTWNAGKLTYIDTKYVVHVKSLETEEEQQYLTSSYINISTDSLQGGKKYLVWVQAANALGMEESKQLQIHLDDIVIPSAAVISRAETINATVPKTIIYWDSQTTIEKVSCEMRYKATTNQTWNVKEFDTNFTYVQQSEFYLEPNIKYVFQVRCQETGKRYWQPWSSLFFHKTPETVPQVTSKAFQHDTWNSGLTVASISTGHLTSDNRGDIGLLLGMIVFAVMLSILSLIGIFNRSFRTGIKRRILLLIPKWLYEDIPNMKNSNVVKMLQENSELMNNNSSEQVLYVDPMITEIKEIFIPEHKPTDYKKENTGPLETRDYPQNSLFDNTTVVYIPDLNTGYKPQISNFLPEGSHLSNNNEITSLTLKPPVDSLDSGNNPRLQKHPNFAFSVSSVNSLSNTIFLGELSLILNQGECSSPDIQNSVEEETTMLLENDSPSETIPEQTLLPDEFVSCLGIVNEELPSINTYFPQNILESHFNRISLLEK
Put plainly: Inhibition of interleukin-23 receptor in human DB cells assessed as reduction in IL-23-stimulated STAT3 phosphorylation incubated for 30 mins by HTRF assay. In kind it is cell-based.

Experiment [2] concerns the target T1, Interleukin-23 receptor. Put plainly: Inhibition of interleukin-23 binding to human interleukin-23 receptor incubated for 2 hrs by competitive binding ELISA.
The nature of experiment [3]: Inhibition of interleukin-23 binding to rat interleukin-23 receptor incubated for 2 hrs by competitive binding ELISA. Background: In an ELISA, binding on a coated surface is turned into a signal by an enzyme label.

Where a SMILES comes first, the peptide text is derived from it.

What is called IC50 is the concentration that gives 50% inhibition. On to `CC(=O)N[C@H](C(=O)N[C@@H](CN)C(=O)N[C@H](C(=O)N[C@@H](Cc1c[nH]c2ccccc12)C(=O)N[C@@H](CCC(N)=O)C(=O)N[C@H](C(=O)N[C@@H](Cc1ccc(OCCN)cc1)C(=O)N[C@@H](Cc1ccc2ccccc2c1)C(=O)N[C@@](C)(CCCCN)C(=O)N[C@@H](CCC(=O)O)C(=O)N[C@@H](CC(N)=O)C(=O)NCC(N)=O)C(C)(C)S)[C@@H](C)O)C(C)(C)S`, for which the IC50 is less than 10 nM at Interleukin-23 receptor [1], less than 10 nM at Interleukin-23 receptor [2] and 25 to 100 nM in experiment [3].
On to `CC(=O)NCCCC[C@](C)(NC(=O)[C@H](Cc1ccc2ccccc2c1)NC(=O)[C@H](Cc1ccc(OCCNC(C)=O)cc1)NC(=O)[C@@H]1CSCC[C@H](NC(C)=O)C(=O)N[C@@H](CCC(N)=O)C(=O)N[C@@H]([C@@H](C)O)C(=O)N[C@@H](Cc2c[nH]c3ccccc23)C(=O)N[C@@H](CCC(N)=O)C(=O)N1)C(=O)N[C@@H](CCC(=O)O)C(=O)N[C@@H](CC(N)=O)C(=O)N[C@@H](CC(N)=O)C(N)=O`, for which the IC50 (at Interleukin-23 receptor [1]; at Interleukin-23 receptor [2]; in experiment [3]) was less than 10 nM throughout.
Consider `CC(=O)N[C@@H](CS)C(=O)N[C@@H](CCC(N)=O)C(=O)N[C@H](C(=O)N[C@@H](Cc1c[nH]c2ccccc12)C(=O)N[C@@H](CCC(N)=O)C(=O)N[C@@H](CS)C(=O)N[C@@H](Cc1ccc(O)cc1)C(=O)N[C@@H](Cc1c[nH]c2ccccc12)C(=O)N[C@@](C)(CC(C)C)C(=O)N[C@@H](CCC(=O)O)C(=O)N[C@@H](CC(N)=O)C(=O)NCC(N)=O)[C@@H](C)O`, for which the IC50 at Interleukin-23 receptor [1] was found to be 5 nM; in experiment [3], 27 nM.
With `CC(=O)N[C@@H](CS)C(=O)N[C@@H](CO)C(=O)N[C@H](C(=O)N[C@@H](Cc1c[nH]c2ccccc12)C(=O)N[C@@H](CCC(N)=O)C(=O)N[C@@H](CS)C(=O)N[C@@H](Cc1ccc(O)cc1)C(=O)N[C@@H](Cc1c[nH]c2ccccc12)C(=O)N[C@@H](CC(C)C)C(=O)N[C@@H](CCCCN)C(=O)N[C@@H](Cc1cnc[nH]1)C(=O)NCC(=O)NCC(=O)N[C@@H](CCC(=O)O)C(N)=O)[C@@H](C)O` (Ac-CSTWQCYWLKHGGE-NH2), the figures for the IC50 (at Interleukin-23 receptor [1]; in experiment [3]) were 2 nM and 24 nM, respectively.
Turning to `COc1ccc(C[C@H](NC(=O)[C@@H](NC(=O)[C@H](CCC(N)=O)NC(=O)[C@H](Cc2c[nH]c3ccccc23)NC(=O)[C@@H](NC(=O)[C@H](CCC(N)=O)NC(=O)[C@@H](NC(=O)CCCC(=O)O)C(C)(C)S)[C@@H](C)O)C(C)(C)S)C(=O)N[C@@H](Cc2ccc3ccccc3c2)C(=O)N[C@@](C)(CCCCN)C(=O)N[C@@H](CCCCNC(C)=O)C(=O)N[C@@H](CC(N)=O)C(=O)NCC(N)=O)cc1`, the results for the IC50 (at Interleukin-23 receptor [1]; at Interleukin-23 receptor [2]; in experiment [3]) were 10 to 25 nM, 25 to 100 nM and 25 to 100 nM, respectively.
As for `CC(=O)N[C@H](C(=O)N[C@@H](C)C(=O)N[C@@H](CC(=O)O)C(=O)N[C@@H](Cc1c[nH]c2ccccc12)C(=O)N[C@H](C(=O)N[C@@H](CS)C(=O)N[C@@H](Cc1ccc(O)cc1)C(=O)N[C@@H](Cc1c[nH]c2ccccc12)C(=O)N[C@@H](Cc1cnc[nH]1)C(=O)N[C@H](C(=O)N[C@@H](Cc1ccccc1)C(=O)NCC(=O)NCCOCC(=O)N[C@H](CCCCN)C(N)=O)[C@@H](C)O)C(C)C)C(C)(C)S`, the IC50 fell in the range of 100 to 1000 nM at Interleukin-23 receptor [1], 100 to 1000 nM on Interleukin-23 receptor [2] and 1000 to 10000 nM in experiment [3].
As for `CC(=O)N[C@@H](CS)C(=O)N[C@@H](CCCNC(=N)N)C(=O)N[C@H](C(=O)N[C@@H](Cc1c[nH]c2ccccc12)C(=O)N[C@@H](CCC(N)=O)C(=O)N[C@@H](CS)C(=O)N[C@@H](Cc1ccc(O)cc1)C(=O)N[C@@H](Cc1c[nH]c2ccccc12)C(=O)N[C@@H](CCCNC(=N)N)C(=O)N[C@@H](CCC(=O)O)C(=O)N[C@@H](Cc1ccc(O)cc1)C(=O)NCC(=O)N[C@@H](C)C(=O)N[C@H](CCCCN)C(N)=O)[C@@H](C)O`, the values for the IC50 (on Interleukin-23 receptor [1]; in experiment [3]) were 8 nM and 80 nM, respectively.
For the compound `COc1ccc(C[C@H](NC(=O)[C@@H](NC(=O)[C@H](CCC(N)=O)NC(=O)[C@H](Cc2c[nH]c3ccccc23)NC(=O)[C@@H](NC(=O)[C@H](CCC(N)=O)NC(=O)[C@@H](NCN2C(=O)COCC2=O)C(C)(C)S)[C@@H](C)O)C(C)(C)S)C(=O)N[C@@H](Cc2ccc3ccccc3c2)C(=O)N[C@@](C)(CCCCN)C(=O)N[C@@H](CCCCNC(C)=O)C(=O)N[C@@H](CC(N)=O)C(=O)NCC(N)=O)cc1`, the IC50 on Interleukin-23 receptor [1] fell in the range of 10 to 25 nM; on Interleukin-23 receptor [2] it was 25 to 100 nM; in experiment [3] it was 25 to 100 nM.
With `COc1ccc(C[C@H](NC(=O)[C@@H](NC(=O)[C@H](CCC(N)=O)NC(=O)[C@H](Cc2c[nH]c3ccccc23)NC(=O)[C@@H](NC(=O)[C@H](CCC(N)=O)NC(=O)[C@@H](NC(=O)Cc2ccc(F)cc2)C(C)(C)S)[C@@H](C)O)C(C)(C)S)C(=O)N[C@@H](Cc2ccc3ccccc3c2)C(=O)N[C@@](C)(CCCCN)C(=O)N[C@@H](CCCCNC(C)=O)C(=O)N[C@@H](CC(N)=O)C(=O)NCC(N)=O)cc1`, the IC50 at Interleukin-23 receptor [1] was less than 10 nM; on Interleukin-23 receptor [2] it was 25 to 100 nM; in experiment [3] it was 100 to 1000 nM.
With `CC(=O)NCCCC[C@H](NC(=O)[C@H](CCC(C)C)NC(=O)[C@H](Cc1c[nH]c2ccccc12)NC(=O)[C@H](Cc1ccc(O)cc1)NC(=O)[C@H](CS)NC(=O)[C@H](CCC(N)=O)NC(=O)[C@H](Cc1c[nH]c2ccccc12)NC(=O)[C@@H](NC(=O)[C@H](CCC(N)=O)NC(=O)[C@H](CS)NC(C)=O)[C@@H](C)O)C(=O)N[C@@H](CC(N)=O)C(=O)NCC(N)=O`, the IC50 on Interleukin-23 receptor [1] was determined as 3 nM; in experiment [3], 32 nM.
Consider `CC(=O)NCCCC[C@H](NC(=O)[C@](C)(CCCCN)NC(=O)[C@H](Cc1ccc2ccccc2c1)NC(=O)[C@H](Cc1ccc(OCCN)cc1)NC(=O)[C@@H](NC(=O)[C@H](CCC(N)=O)NC(=O)[C@H](Cc1c[nH]c2ccccc12)NC(=O)[C@@H](NC(=O)[C@H](CCC(N)=O)NC(=O)[C@@H](NC(C)=O)C(C)(C)S)[C@@H](C)O)C(C)(C)S)C(=O)N[C@@H](CC(N)=O)C(=O)NCC(N)=O`, for which the IC50 was less than 10 nM at Interleukin-23 receptor [1], less than 10 nM on Interleukin-23 receptor [2] and 25 to 100 nM in experiment [3].
Consider `CC(=O)N[C@@H](CS)C(=O)N[C@@H](CCCNC(N)=O)C(=O)N[C@H](C(=O)N[C@@H](Cc1c[nH]c2ccccc12)C(=O)N[C@@H](CCC(N)=O)C(=O)N[C@@H](CS)C(=O)N[C@@H](Cc1ccc(O)cc1)C(=O)N[C@@H](Cc1c[nH]c2ccccc12)C(=O)N[C@@H](CCCNC(=N)N)C(=O)N[C@H](C(=O)N[C@@H](Cc1ccccc1)C(=O)NCC(=O)NCCC(=O)N[C@H](CCCCN)C(N)=O)C(C)C)[C@@H](C)O`, for which the IC50 was 50 nM at Interleukin-23 receptor [2] and 76 nM in experiment [3].
The like results for `CC(=O)N[C@@H](CS)C(=O)N[C@@H](CCC(N)=O)C(=O)N[C@H](C(=O)N[C@@H](Cc1c[nH]c2ccccc12)C(=O)N[C@@H](CCC(N)=O)C(=O)N[C@@H](CS)C(=O)N[C@@H](Cc1ccc(O)cc1)C(=O)N[C@@H](Cc1c[nH]c2ccccc12)C(=O)N[C@@H](CCC(C)C)C(=O)N[C@@H](CCC(=O)O)C(=O)N[C@@H](CC(N)=O)C(=O)NCC(=O)NCC(N)=O)[C@@H](C)O` were, in that order, 61 to 362 nM and 140 nM.

(Values after ChEMBL document CHEMBL4417631, “Oral peptide inhibitors of interleukin-23 receptor and their use to treat inflammatory bowel diseases” (2017).)
